Measurements taken from patent US20260263415A1, “Sulfonamides With Activity in Acute Kidney Injury and Fibrosis” (University of Pittsburgh - Of the Commonwealth System of …, priority 2023, published 2026).

Tested on: Zebrafish larvae injected with gentamicin
Test: Zebrafish gentamicin kidney injury survival assay
Type: in vivo
Description: Potential efficacy was tested in zebrafish assays, essentially as follows. Zebrafish were maintained as described (see, e.g., Cianciolo Cosentino, C., et al. (2013) Histone deacetylase inhibitor enhances recovery after AKI. J Am Soc Nephrol, 24 (6), 943-53 and Skrypnyk, N. I., et al. (2016) Delayed treatment with PTBA analogs reduces postinjury renal fibrosis after kidney injury. Am J Physiol Renal Physiol, 310 (8), F705-F716), and embryos from Pitt AB wildtype were used. Zebrafish larvae were injected with a single dose of gentamicin at 3 dpf with 7 ng of gentamicin as previously described. Prior to the gentamicin injection, 3 dpf zebrafish larvae were anesthetized in 0.2% tricaine/E3 medium (5 mM NaCl, 0.33 mM CaCl2), 0.33 mM MgSO4, and 0.17 mM KCl). Glass capillaries were pulled to produce microneedles and were aspirated with […] of 7 ng/nL gentamicin solution diluted with filtered saline solution (Aspen Veterinary Resources, Cat No. 17861615). The larvae were injected with 1 nL gentamicin solution, delivered via the common cardinal vein. After injection, larvae were incubated in 50 μg/mL penicillin/streptomycin diluted in E3 medium. […]
Data were analyzed as compounds that extend survival as measured by Kaplan-Meier estimator.
Table A provides preliminary calculated hazard ratios (n=1) for tested compounds (see also FIGS. 3A and 3B). […]

## COC(=O)CCCSc1ccccc1 [UPHD 25]
4 μM from 2 days post-injection, days 5-11 post-fertilization
  larval survival compared to the injured, untreated control: increase larval survival
Positive control, all survival assays
  survival as measured by Kaplan-Meier estimator: statistically significant
